Laboratory results reported in US8722637B2, “Methods and compositions of IG20 and DENN-SV splice variants” (The Board of Trustees of the University of Illinois, priority 2003, dated 2014).

Columns and labels:
Format in all cases: cell-based, human
caspase-3 = experiment: Caspase-3 activation in HeLa IG20 cells; details: 5 hours; TRAIL, or TNF-α and cycloheximide
Protocol: FIG. 15: IG20 Cells show increased specific activation of caspases upon TRAIL treatment A) Initiator caspases—Hela IG20 cells and control cells treated with TRAIL for 1H, were stained, with flourochrome-conjugated peptide inhibitors of specific active caspases as indicated, fixed and analyzed by FACS. B) Caspase-8 cleavage—IG20 HeLa cells and control cells were treated with TRAIL for either 1H or 3H, lysed and immunoblotted for the 10 kDa cleaved product of active caspase-8 using the 6B6 monoclonal antibody. […]
Caspase activation—To assess the general activation of caspases, cells were stained with FITC tagged caspase inhibitor Val-Ala-Asp-flouromethyl ketone Promega, Madison, Wis.) for 10 minutes at 37° C., washed and analyzed by FACS for percentage of FITC positive cells. The initiator caspases were analyzed by using carboxyflourescein labeled peptide flouromethlyketone inhibitors (FAM-peptide-FMK) directed against active caspase-8, 9 and 10 (APOLOGIX caspase detection kit, Cell Tech Inc., Minneapolis, Minn.). […] Cells were collected, washed once, resuspended in Perm/wash buffer and analyzed by FACS for PE positive population. […]

HeLa cells = experiment: TNFα-induced mitochondrial depolarization in Annexin V-separated cells
Description: FIG. 7: Endogenous Expression of IG20 variants and Susceptibility To TNF-Induced Apoptosis. (A) Magnetic Separation of Apoptotic and TNFα-resistant Cells. Apoptotic cells were magnetized and physically separated from TNFα-resistant cells using the Annexin V-conjugated microbeads, as described in Materials and Methods. mRNAs were then isolated from apoptotic and TNFα-resistant cells separately and were used in RT-PCR using IG20-specific primers F-1 and B-1. […] In contrast, marked increase in expression of IG20 with no expression of DENN-SV (the anti-apoptotic variant) is seen in apoptotic cells. (B) TNFα-Induced Mitochondrial Depolarization in apoptotic and TNFα-resistant cells. Cells in (A) were then assessed for mitochondrial depolarization. […] Bars represent averages from three wells for each group. The experiment was repeated at least three times and consistent results were obtained.
Cells were plated in 6-well plates at 1.2×10^5 in growth medium. Twenty four hours later, cells were either untreated or treated with 10 ng/ml TNF-α and 10 μg/ml cyclohexamide (CHX) for 6 hours. To assess the effects of TNFα and CHX treatment, cells were either stained with 100 nM tetramethylrhodamine ethyl ester (TMRE) (Molecular Probes, Eugene, Oreg.) for 10 minutes, harvested by trypsinization, washed once with ice-cold PBS and then subjected to FACS analysis, or were stained with either trypan blue and evaluated for viability using a light microscope, or with 1 μg/ml Hoechst 33342 (Sigma) for 10 minutes and evaluated for chromatin condensation in situ using a Diaphot 200 inverted microscope with an epifluorescence attachment (Nikon, Melville, N.Y.).
To separate cells that were undergoing apoptosis, or resistant to apoptosis upon TNFα treatment, the Annexin V microbeads (Miltenyi Biotec, Inc.) were used according to manufacturer's protocol. Annexin V is a phospholipid-binding protein that recognizes phosphatidylserine on the surface of apoptotic cells. […]

HeLa IG20 cells = experiment: TRAIL or TNF-α/cycloheximide induced apoptosis in HeLa IG20 cells (caspase activation, TMRE, Hoechst); details: 5 hours; TRAIL 100 ng/mL, or 10 ng/mL TNF-α and 10 μg/mL cycloheximide
Protocol: FIG. 13: IG20 transfected HeLa cells show increased apoptosis upon TRAIL treatment. HeLa-IG20 and control cells were treated for 5 hours with TRAIL at 100 ng/mL or with 10 ng/mL of TNF-α and 10 μg/mL of Cycloheximide and analyzed for apoptosis. A) Activation of caspases—cells were incubated for 10 minutes with FITC labeled general caspase inhibitor VAD FMK (Val-Ala-Asp-flouromethyl ketone) and analyzed by FACS. Numbers in the histogram indicate percentage of FITC positive cells. B) Mitochondrial Depolarization—Loss of the dye TMRE is indicative of mitochondrial depolarization and the numbers shown in the FACS histograms represent percentage of TMRE negative cells. All the above experiments were done in triplicates and results shown are representative histograms. […] D) Percentage of cells with condensed chromatin was calculated by counting 3 fields containing at least 200 cells each and error bars indicate mean±S.D.
Mitochondrial depolarization and chromatin condensation—2×10^5 HeLa IG20 and Vector control cells were plated into a 12-well culture dish and allowed to grow for 48 hours. […] Cells were assessed for loss of mitochondrial membrane potential by staining with tetramethylrhodamine ethyl ester (100 nm, Molecular Probes, Eugene, Oreg.) for 10 minutes, washed once with ice-cold PBS, collected and subjected to FACS analysis. […]

[1] = system: HeLa-control, HeLa-IG20 and HeLa-DENN-SV cells; experiment: Colony formation after etoposide treatment (crystal violet)
Protocol: (§1) FIG. 9: Effects of IG20 and DENN-SV on survival and proliferation of cells treated with etoposide. (A) Cell survival after etoposide treatment. Cells were treated with the indicated doses of etoposide and allowed to grow in culture for 2 weeks and stained with crystal violet. (B) Enumeration of colonies after etoposide treatment. Three different experiments using the indicated doses of etoposide were used to determine the effects of the drug on HeLa-control, HeLa-IG20 and HeLa-DENN-SV cells. P values were <0.05 for all test groups. (C) Etoposide-Induced apoptosis. Cells treated with the indicated doses of etoposide were stained with Hoechst as described in Materials and Methods and evaluated for chromatin condensation under a microscope. P values were <0.05 for all test groups. (D) Cell Division after Etoposide Treatment. Cells were stained with CFDA and then subjected to 5 μM etoposide treatment for 5 days. Cells were then harvested and evaluated by FACS for CFDA staining intensity. Histograms show relative levels of CFDA dye retention. The peak on the left within each histogram represents cells that have undergone cell division, and therefore, partially lost CFDA staining, whereas the peak on the right represents undivided cells that retained maximum CFDA staining.
(§2) Cells were plated (10^5 cells/well) the day before treatment into 6 well plates. Cells were treated with etoposide for 24 hours or vinblastine for 1 hour at indicated concentrations. After treatment, cells were washed 3 times with PBS and then replenished with fresh media and incubated at 37° C. Two weeks later, cells were fixed in ice-cold methanol and stained with crystal violet for visualization.

[2] = system: HeLa-control, HeLa-IG20 and HeLa-DENN-SV cells; experiment: Cell division after etoposide treatment, CFDA staining; details: 5 μM etoposide for 5 days
Protocol: as §1
1×10^5 Cells/100 mm^2 plate were stained with 2 μM CFDA (Molecular Probes, Eugene, Oreg.) in situ in 5 ml PBS/100 mm^2 for 10 minutes at 37° C. Cells were then washed 3 times and replenished with new media Cells were harvested 5 days later and analyzed by FACS.

[3] = system: HeLa-control, HeLa-IG20 and HeLa-DENN-SV cells; experiment: Etoposide-induced apoptosis, Hoechst chromatin condensation
Protocol: as §1
Cells were stained in situ with 1 μg/ml of Hoechst 33342 (Sigma, St. Louis, Mo.) in DMEM for 10 minutes at 37° C. […]

[4] = system: HeLa-control, HeLa-IG20 and HeLa-DENN-SV cells; experiment: Vinblastine-induced apoptosis, chromatin condensation by Hoechst staining; details: 0.05 μM vinblastine, Hoechst 24 hours after treatment
Protocol: (§3) FIG. 8: Effect of IG20 and DENN-SV on Cell Survival and Apoptosis of TransfectedCells after Vinblastine Treatment. (A) Cell survival after Vinblastine treatment. […] (B) Vinblastine-Induced apoptosis. Cells treated with 0.05 μM vinblastine were stained with Hoechst 24 hours after the treatment in order to determine the percentage of cells with condensed chromatin. P values were <0.05 for all test groups.
as §2
Cells were stained in situ with 1 μg/ml of Hoechst 33342 (Sigma, St. Louis, Mo.) in DMEM for 10 minutes at 37° C. Chromatin condensation was then visualized in situ using a Diaphot 200 inverted microscope with an epifluorescence attachment (Nikon, Inc., Melville, N.Y.). 10 different fields were randomly chosen to determine the average number of cells with condensed chromatin (apoptotic) as compared to live cells.

[5] = system: HeLa-control, HeLa-IG20 and HeLa-DENN-SV cells; experiment: Cell survival (crystal violet colonies) after vinblastine treatment; details: dose of 0.05 ∝M, two weeks
Protocol: as §3, §2

Molecule: TNFα
- Relative increase in caspase-3 activation, HeLa IG20 relative to control cells (caspase-3): less than two fold increase
- Apoptosis (cells with depolarized mitochondria) (HeLa cells; Annexin V-negative HeLa cells after TNFα and CHX): 8%
- Apoptosis (cells with depolarized mitochondria) (HeLa cells; Annexin V-positive HeLa cells after TNFα and CHX): 93%
- Apoptosis (cells with depolarized mitochondria) (HeLa cells; unseparated control HeLa cells): 35%
- Increase in cells undergoing apoptosis, HeLa IG20 versus control cells (HeLa IG20 cells): two-fold increase

Molecule: COc1cc([C@@H]2c3cc4c(cc3[C@@H](O[C@@H]3O[C@@H]5CO[C@@H](C)O[C@H]5[C@H](O)[C@H]3O)[C@H]3COC(=O)[C@H]23)OCO4)cc(OC)c1O [etoposide]
- Colonies formed after etoposide treatment ([1]; HeLa-DENN-SV cells, 5 μM etoposide): 125 colonies
- Colonies formed after etoposide treatment ([1]; HeLa-DENN-SV cells, 20 μM etoposide): approximately 40 colonies
- Growth after etoposide treatment ([1]; HeLa-DENN-SV cells, 30 μM etoposide): able to grow
- Colonies formed after etoposide treatment ([1]; HeLa-IG20 cells, 5 μM etoposide, on average): 8 colonies
- Colonies formed after etoposide treatment ([1]; HeLa-IG20 cells, 20 μM etoposide): very few or no colonies
- Colonies formed after etoposide treatment ([1]; HeLa-control cells, 5 μM etoposide): 39 colonies
- Cell division as indicated by CFDA staining ([2]; DENN-SV cells): 36%
- Cell division as indicated by CFDA staining ([2]; HeLa-IG20 cells): 9%
- Cell division as indicated by CFDA staining ([2]; control cells): 24%
- Etoposide-induced apoptosis ([3]; HeLa-DENN-SV cells): noticeable resistance to etoposide-induced apoptosis
- Etoposide-induced apoptosis ([3]; HeLa-IG20 cells): did not show a marked increase in susceptibility to apoptosis

Molecule: CC[C@]1(O)C[C@@H]2CN(CCc3c([nH]c4ccccc34)[C@@](C(=O)OC)(c3cc4c(cc3OC)N(C)[C@H]3[C@@](O)(C(=O)OC)[C@H](OC(C)=O)[C@]5(CC)C=CCN6CC[C@]43[C@@H]65)C2)C1 [vinblastine]
- Vinblastine-induced apoptosis as measured by chromatin condensation ([4]; HeLa-DENN-SV cells): 21%
- Vinblastine-induced apoptosis as measured by chromatin condensation ([4]; HeLa-IG20 cells): 70%
- Vinblastine-induced apoptosis as measured by chromatin condensation ([4]; HeLa-controls): 46%
- Cell survival (colonies) after vinblastine treatment ([5]; HeLa-DENN-SV cells): not significantly affected
- Cell survival (colonies) after vinblastine treatment ([5]; HeLa-IG20 cells): only a few HeLa-IG20 colonies detectable
- Cell survival (colonies) after vinblastine treatment ([5]; HeLa-control cells): intermediary response
